Values quoted from earlier work as cited in patent US20070254015A1, “Sanitizing surfaces” (Searete LLC, a limited liability corporation of the State …, priority 2006, published 2007).
Where two headings read alike, the source gives them in different places.

Legend:
[1] = system: Human Immunodeficiency Virus (HIV-1)
[2] = system: Hepatitis B Virus
[3] = Table I, liquid sanitizing agents
[4] = Table II, liquid sanitizing agents for gloves

Compound | Known Minimum Concentration by Volume for Immediately Sterilizing Human Immunodeficiency Virus (HIV-1) [1, 3] | Known Minimum Concentration by Volume for Immediately Sterilizing Human Immunodeficiency Virus (HIV-1) [1, 4] | Known Minimum Concentration by Volume for Immediately Sterilizing Hepatitis B Virus [2, 3] | Known Minimum Concentration by Volume for Immediately Sterilizing Hepatitis B Virus [2, 4]
ethylphenyl-polyethylene glycol [NP-40] | 1% | 1% | – | –
CCO [Ethyl Alcohol] | 50% | 50% | 80% | 80%
CC(C)O [Isopropyl Alcohol] | 30% | 30% | 70% | 70%
OO [Hydrogen Peroxide] | 0.3% | 0.3% | – | –
